Source: ChEMBL document CHEMBL1148589, “Rationally designed nucleoside antibiotics that inhibit siderophore biosynthesis of Mycobacterium tuberculosis” (J Med Chem, 2006)
≈ marks a conversion by molar mass, not a printed value.

Legend:
P388 = assay: Cytotoxicity against P388 murine leukemia cell line at 100-200 uM; assay type: functional; conditions: Mus musculus, read-out: ED50 (the source's name)
[1] = tested on: Mycobacterium tuberculosis; assay: Inhibitory activity against Mycobacterium tuberculosis H37Rv; assay type: functional
[2] = Dissociation constant, pKa of the compound; assay type: physicochemical
[3] = Therapeutic index (ED50/MIC50); assay type: cell-based; conditions: mouse, P388 cells; read-out: Ratio ED50/MIC50

Row | Structure (SMILES) | EC50 (P388) | MIC50 [1] | MIC99 [1] | pKa [2] | selectivity ratio [3]
1 | Nc1ncnc2c1ncn2[C@@H]1O[C@H](Cn2cc(C(=O)c3ccccc3O)nn2)[C@@H](O)[C@H]1O | > 100 µg/mL | > 100 µM | > 100 µM |  | 
2 | Nc1ncnc2c1ncn2[C@@H]1O[C@H](COP(=O)(O)CC(=O)c2ccccc2O)[C@@H](O)[C@H]1O | > 100 µg/mL | > 100 µM | > 100 µM | 2 | 
3 | Nc1ncnc2c1ncn2[C@@H]1O[C@H](COS(=O)(=O)NC(=O)c2ccccc2O)[C@@H](O)[C@H]1O | > 100 µg/mL | 0.091 µM (≈ 0.0424 µg/mL) | 0.29 µM (≈ 0.135 µg/mL) |  | 
4 | Nc1ncnc2c1ncn2[C@@H]1O[C@H](COS(=O)(=O)NCc2ccccc2O)[C@@H](O)[C@H]1O | > 100 µg/mL | > 100 µM | > 100 µM | 8.5 | 
5 | Nc1ncnc2c1ncn2[C@@H]1O[C@H](CNS(=O)(=O)NC(=O)c2ccccc2O)[C@@H](O)[C@H]1O | > 100 µg/mL | 0.077 µM (≈ 0.0358 µg/mL) | 0.19 µM (≈ 0.0884 µg/mL) |  | > 900
6 | Nc1ccccc1C(=O)NS(=O)(=O)OC[C@H]1O[C@@H](n2cnc3c(N)ncnc32)[C@H](O)[C@@H]1O | > 100 µg/mL | 30.9 µM (≈ 14.4 µg/mL) | > 100 µM |  | 
7 | Nc1ncnc2c1ncn2[C@@H]1O[C@H](COS(=O)(=O)NC(=O)c2ccccc2)[C@@H](O)[C@H]1O | > 100 µg/mL | 4.5 µM (≈ 2.03 µg/mL) | 12.5 µM (≈ 5.63 µg/mL) | 2.8 | 
8 | NNC(=O)c1ccncc1 [ISONIAZID] |  |  | 0.18 µM (≈ 0.0247 µg/mL) |  | 
